Data from the supplement of paper PMC10307832.

Legend:
Experiment in all cases: relative viability (nuclei count vs DMSO), 5 days (fraction); higher = more cells survive
[1] = compound: C[C@@H](C(=O)N[C@@H](C1CCCCC1)C(=O)N2CCC[C@H]2C(=O)N[C@@H]3[C@@H](CC4=CC=CC=C34)OCC#CC#CCO[C@@H]5CC6=CC=CC=C6[C@@H]5NC(=O)[C@@H]7CCCN7C(=O)[C@H](C8CCCCC8)NC(=O)[C@H](C)NC)NC [AZD5582] + CC(C)C[C@H](NC(=O)[C@H](Cc1ccccc1)NC(=O)c1cnccn1)B(O)O [Bortezomib] (partner 0.002 µM)
Procedure, shortened: (§1)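 A single step with final 0.05% Triton X-100, 1% formaldehyde and 1 ug/ml Hoechst fixed the cells and stained nuclei 5 days after treatment. Lung cancer cell lines in 1536-well plates had been treated by pin tool the day after seeding with one drug alone or a fixed anchor-drug dose plus five library-drug doses (not always all listed) in √10 steps, and nuclei were counted on 4× images. Relative viability is the ratio of nuclei in treated wells to nuclei in vehicle wells, taken as the median of duplicate plates.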

[2] = compound: C[C@@H](C(=O)N[C@@H](C1CCCCC1)C(=O)N2CCC[C@H]2C(=O)N[C@@H]3[C@@H](CC4=CC=CC=C34)OCC#CC#CCO[C@@H]5CC6=CC=CC=C6[C@@H]5NC(=O)[C@@H]7CCCN7C(=O)[C@H](C8CCCCC8)NC(=O)[C@H](C)NC)NC [AZD5582] + COc1cc2c(Oc3ccc(NC(=O)C4(C(=O)Nc5ccc(F)cc5)CC4)cc3F)ccnc2cc1OCCCN1CCOCC1 [Foretinib] (partner 0.25 µM)
Procedure, shortened: as §1

[3] = compound: C[C@@H](C(=O)N[C@@H](C1CCCCC1)C(=O)N2CCC[C@H]2C(=O)N[C@@H]3[C@@H](CC4=CC=CC=C34)OCC#CC#CCO[C@@H]5CC6=CC=CC=C6[C@@H]5NC(=O)[C@@H]7CCCN7C(=O)[C@H](C8CCCCC8)NC(=O)[C@H](C)NC)NC [AZD5582] + CC1(C)CCC(c2ccc(Cl)cc2)=C(CN2CCN(c3ccc(C(=O)NS(=O)(=O)c4ccc(N[C@H](CCN5CCOCC5)CSc5ccccc5)c(S(=O)(=O)C(F)(F)F)c4)cc3)CC2)C1 [Navitoclax] (partner 0.5 µM)
Procedure, shortened: as §1

[4] = compound: C[C@@H](C(=O)N[C@@H](C1CCCCC1)C(=O)N2CCC[C@H]2C(=O)N[C@@H]3[C@@H](CC4=CC=CC=C34)OCC#CC#CCO[C@@H]5CC6=CC=CC=C6[C@@H]5NC(=O)[C@@H]7CCCN7C(=O)[C@H](C8CCCCC8)NC(=O)[C@H](C)NC)NC [AZD5582] + C[C@@H](Oc1cc(-c2cnn(C3CCNCC3)c2)cnc1N)c1c(Cl)ccc(F)c1Cl [Crizotinib] (partner 1 µM)
Procedure, shortened: as §1

[5] = compound: C[C@@H](C(=O)N[C@@H](C1CCCCC1)C(=O)N2CCC[C@H]2C(=O)N[C@@H]3[C@@H](CC4=CC=CC=C34)OCC#CC#CCO[C@@H]5CC6=CC=CC=C6[C@@H]5NC(=O)[C@@H]7CCCN7C(=O)[C@H](C8CCCCC8)NC(=O)[C@H](C)NC)NC [AZD5582] + Cc1nc(NC(=O)N2CCC[C@H]2C(N)=O)sc1-c1ccnc(C(C)(C)C(F)(F)F)c1 [Alpelisib] (partner 2 µM)
Procedure, shortened: as §1

Question: For NCI-H1703, which relative viability ([1]; first compound 0.001581 µM) is on record?
Answer: The relative viability was 0.228.

Question: What about the relative viability ([1]; first compound 0.005 µM) of the same cell line?
Answer: Its relative viability is 0.277.

Question: What about the relative viability ([1]; first compound 0.01581 µM) of the same cell line?
Answer: Its relative viability is 0.43.

Question: And the relative viability ([1]; first compound 0.05 µM)?
Answer: Its relative viability is 0.2.

Question: And the relative viability ([2]; first compound 0.005 µM)?
Answer: Its relative viability is 0.412.

Question: And the relative viability ([2]; first compound 0.01581 µM)?
Answer: The relative viability was 0.376.

Question: What about the relative viability ([2]; first compound 0.05 µM) of the same cell line?
Answer: Its relative viability is 0.372.

Question: What about the relative viability ([3]; first compound 0.001581 µM) of the same cell line?
Answer: Its relative viability is 0.874.

Question: And the relative viability ([3]; first compound 0.005 µM)?
Answer: Its relative viability is 0.807.

Question: What about the relative viability ([3]; first compound 0.01581 µM) of the same cell line?
Answer: Its relative viability is 1.03.

Question: And the relative viability ([3]; first compound 0.05 µM)?
Answer: The relative viability was 0.557.

Question: And the relative viability ([4]; first compound 0.001581 µM)?
Answer: Its relative viability is 0.463.

Question: And the relative viability ([4]; first compound 0.005 µM)?
Answer: The relative viability was 0.428.

Question: What about the relative viability ([4]; first compound 0.01581 µM) of the same cell line?
Answer: Its relative viability is 0.59.

Question: What about the relative viability ([4]; first compound 0.05 µM) of the same cell line?
Answer: The relative viability was 0.459.

Question: And the relative viability ([5]; first compound 0.001581 µM)?
Answer: Its relative viability is 0.208.

Question: What about the relative viability ([5]; first compound 0.005 µM) of the same cell line?
Answer: The relative viability was 0.323.

Question: And the relative viability ([5]; first compound 0.01581 µM)?
Answer: Its relative viability is 0.358.

Question: What about the relative viability ([5]; first compound 0.05 µM) of the same cell line?
Answer: Its relative viability is 0.255.
